Laboratory results published in patent US20170008896A1, “HETEROARYL SYK INHIBITORS” (BOEHRINGER INGELHEIM INTERNATIONAL GMBH, priority 2014, published 2017).
Where two headings read alike, the source gives them in different places.

How the values were obtained:
[1] = Human Liver Microsomal Stability Test; type: in vitro ADME; conditions: human liver microsomes, 1 μM test compound, 37° C.; for micosomal stability Cl: Table 2a
Procedure: The metabolic degradation for a specific SYK-inhibitor is performed at 37° C. with pooled human liver microsomes (human liver microsomes are commercially available as “BD UltraPool™” by Corning Life Sciences, Fogostraat 12, 1060 LJ Amsterdam, The Netherlands). The final incubation volume of 100 μl per time point contains TRIS buffer pH 7.6 at RT (0.1 M), magnesium chloride (5 mM), microsomal protein (1 mg/ml) and the test compound at a final concentration of 1 μM.
Following a short preincubation period at 37° C., the reaction is initiated by addition of beta-nicotinamide adenine dinucleotide phosphate in its reduced form (NADPH, 1 mM) and terminated by transfering an aliquot into solvent after different time points. Additionally, the NADPH-independent degradation is monitored in incubations without NADPH, terminated at the last time point.
The quenched (terminated) incubations are then pelleted by centrifugation (10000 g, 5 min).
An aliquot of the supernatant is assayed by LC-MS/MS for the remaining amount of parent compound. The half-life (t1/2 INVITRO) is determined by the slope of the semilogarithmic plot of the concentration-time profile.
The intrinsic clearance (CL_[…]) is calculated by considering the amount of protein in the incubation:
CL_[…] [μl/min/mg protein]=(Ln 2/(t1/2 INVITRO [min] * protein content [mg/ml]))*1000
The protein content [mg/ml] was determined with the “Bicinchoninic Acid Kit” of Sigma Aldrich (commercially available).
The upscaled intrinsic Clearance (CL_UP_INT) is calculated by considering the liver weight [g liver/kg body weight] and the microsomal recovery [mg protein/g liver]:
CL_UP_INT [ml/min/kg]=0.001*CL_[…]*liver weight*microsomal recovery • with microsomal recovery=45 mg protein/g liver • with liver weight=25.7 g liver/kg body weight
The percent hepatic blood flow (% Qh) is finally calculated by considering the human liver blood flow Q [ml/min/kg]:
% Qh [%]=((Q*CL_UP_INT)/(Q+CL_UP_INT)/Q)*100 • with liver blood flow (Q)=20.7 ml/min/kg.

[2] = target: T1, Recombinant human Syk (amino acids 342-635), GST fusion (Homo sapiens, UniProt P43405); experiment: Syk Kinase Test (Kinase Glo luminescence); type: biochemical; conditions: Table 1; read-out: SYK-inhibition IC50-value
T1 construct: Recombinant human Syk (amino acids 342-635); made in house
Procedure: (§1) The output file of the reader is a csv file that contains the well number and measured relative light units (RLU). For data evaluation and calculation, the measurement of the negative control was set as 100% ctrl and the measurement of the positive control was set as 0% ctrl. Based on this values the % value for the measurement of each substance concentration was calculated using an Assay Explorer software (Accelrys). Normally, the % ctrl values calculated are between 0% and 100% values but may also occur outside these limits in individual cases based on variability or compound characteristics. The IC50 values were calculated from the % ctrl values using Assay Explorer software.

[3] = target: T2, Recombinant human Aurora B (amino acids 1-344), His tag (Homo sapiens, UniProt Q96GD4); experiment: Aurora B Kinase Test (ADP Glo luminescence); type: biochemical
T2 construct: Recombinant human Aurora B (amino acids 1-344, clone number DU1773)
T2 sequence (Q96GD4 whole entry, the tested form may be a part): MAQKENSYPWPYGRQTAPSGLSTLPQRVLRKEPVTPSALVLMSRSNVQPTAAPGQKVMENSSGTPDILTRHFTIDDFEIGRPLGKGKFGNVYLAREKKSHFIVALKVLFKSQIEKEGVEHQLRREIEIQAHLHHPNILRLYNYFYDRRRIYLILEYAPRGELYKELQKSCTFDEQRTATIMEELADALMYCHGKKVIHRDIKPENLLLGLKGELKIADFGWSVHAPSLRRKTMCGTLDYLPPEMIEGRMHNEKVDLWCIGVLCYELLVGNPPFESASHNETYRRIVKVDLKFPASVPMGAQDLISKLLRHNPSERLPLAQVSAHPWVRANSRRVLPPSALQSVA
Procedure: The activity of the Aurora B kinase protein was determined using the ADP Glo® Luminescence Kinase test (Promega; V9103X).
Serial Dilution is done in 1:10 steps in 100% DMSO.
Then 20 μl Kinase detection mix (Detection Buffer #V913B Promega; Kinase Detection Substrate #V914B Promega) were added and incubated for 40 minutes at room temperature.
as §1, with “measured RLU.” for “measured relative light units (RLU).”, “as 0%” for “as 100%”, “as 100%” for “as 0%”, “Explorer software.Calculation: [y=(a−d)/(1+(x/c)̂b)+d], a=low value, d=high value; x=conc M; c=IC50 M; b=hill; y=% ctrl.” for “Explorer software.”

Human GSK3beta = target: T3, Human GSK3beta (Homo sapiens, UniProt P49841); experiment: GSK 3β Kinase-Test (Z'-LYTE); type: biochemical
T3 construct: purchased University Dundee/Scotland (Dr. James Hastie, Dept. of Biochemistry); host or cells: SF21 insect cells
T3 sequence (P49841 whole entry): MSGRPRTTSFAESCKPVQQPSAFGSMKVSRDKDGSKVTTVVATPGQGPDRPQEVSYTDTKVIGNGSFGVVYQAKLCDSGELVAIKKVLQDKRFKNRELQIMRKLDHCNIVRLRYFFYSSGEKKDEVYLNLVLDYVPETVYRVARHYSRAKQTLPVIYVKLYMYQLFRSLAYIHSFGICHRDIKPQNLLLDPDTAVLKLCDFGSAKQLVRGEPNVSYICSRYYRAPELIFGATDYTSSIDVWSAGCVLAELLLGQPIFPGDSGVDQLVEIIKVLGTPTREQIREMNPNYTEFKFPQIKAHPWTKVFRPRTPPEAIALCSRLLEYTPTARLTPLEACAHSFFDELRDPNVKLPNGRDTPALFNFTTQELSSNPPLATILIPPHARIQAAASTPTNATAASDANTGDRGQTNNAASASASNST
Procedure: Human GSK3beta (expressed and purified from SF21 cells)is obtained from the University Dundee/Scotland (Dr. James Hastie—Dept. of Biochemistry) in 50 mM Tris (pH7.5); 150 mM NaCl; 0.1 mM EGTA, 270 mM Succrose, 0.1% R-mercaptoethanol, 1 mM benzamidine, 0.2 mM PMSF; sequence see below). The enzyme is diluted to 3.56 μM (168 μg/ml) in enzyme dilution buffer and 6 μl aliquots are stored at −80° C.
The activity of GSK3β kinase protein is measured using the Z′-LYTETM assay technology from Invitrogen (#PV3324).
The assay is performed in 384 black plates from Corning (#3676) in a final volume of 10 μl by adding 5 μl of kinase peptide mix and 2.5 μl of compound dilution. The reaction is started by addition of 2.5 μl of the 4× ATP solution.
(§2) Positive controls are reaction mixtures containing no test compound; negative controls (blanks) are reaction mixtures containing no ATP. As a further control, the phosphopeptide solution is added to wells without kinase and without ATP(=100% phosphorylation control). The non inhibited kinase reaction will result in a phosphorylation corresponding to 20%-30% of the phosphorylation control.
The reaction is performed 1 h at room temperature. After 1 h 5 μl of the development solution is added. After a further incubation for 1 h at room temperature 5 μl of the stop reagent is added. Finally the plates are read on a Flex Station II 384 (Molecular Devices).
The output text file is evaluated in an “MS-Excel-VB-Makro” and “Graph Pad Prism”(Version 5) (GraphPad Software Inc.) is used to calculate the results. Data for the inhibition of GSK3beta are reported in M. data for the inhibition of the protease are reported in % CTL.

FLT3 = target: T4, FLT3 (Homo sapiens, UniProt P36888); experiment: FLT3 Kinase Test (Z'-LYTE); type: biochemical
T4 construct: purchased Invitrogen PV3182
T4 sequence (P36888 564-993 limits assumed): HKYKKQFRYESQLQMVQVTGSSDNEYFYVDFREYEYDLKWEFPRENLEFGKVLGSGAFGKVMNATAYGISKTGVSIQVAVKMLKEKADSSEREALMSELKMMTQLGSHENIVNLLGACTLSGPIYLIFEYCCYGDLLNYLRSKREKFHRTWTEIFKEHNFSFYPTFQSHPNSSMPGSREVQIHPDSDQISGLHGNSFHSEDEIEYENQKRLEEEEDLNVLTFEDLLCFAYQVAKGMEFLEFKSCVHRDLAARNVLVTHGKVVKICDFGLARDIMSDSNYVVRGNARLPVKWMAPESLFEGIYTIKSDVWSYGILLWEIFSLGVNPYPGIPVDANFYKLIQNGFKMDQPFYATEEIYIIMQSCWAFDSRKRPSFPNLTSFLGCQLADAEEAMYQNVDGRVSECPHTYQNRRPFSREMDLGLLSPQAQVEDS
Procedure: FLT3 is obtained from Invitrogen in 50 mM Tris (pH7.5); 100 mM NaCl; 0.05 mM EDTA, 0.05% NP-40, 2 mM DTT; 50% Glycerol #PV3182; Lot 286671; sequence see below). The enzyme is diluted to 720 nM (35 μg/ml) in enzyme dilution buffer and 10 μl aliquots are stored at −80° C.
The activity of FLT3 is measured using the Z′-LYTETM assay technology from Invitrogen (#PV3191)
The assay is performed in 384 black plates from Corning (#3676) in a final volume of 10 μl by adding 5 μl of kinase peptide mix and 2.5 μl of compound dilution. The reaction is started by addition of 2.5 μl of the 4×]ATP solution.
as §2, with “kinase.” for “ATP.”, “kinase(=100%” for “kinase and without ATP(=100%”
The reaction is performed for 1 h at room temperature before 5 μl of the development solution is added. After a further incubation for 1 h at room temperature 5 μl of the stop reagent is added. The plates are read on a Flex Station II 384 (Molecular Devices).
The output text file is evaluated in an “MS-Excel-VB-Makro” and “GraphPadPrism”(Version 5) (GraphPad Software Inc.) is used to calculate the results. Data for the inhibition of FLT3 are reported in M. data for the inhibition of the protease are reported in % CTL.

[4] = patients with ITP (Podolanczuk et al; Blood (2009)); cited from earlier work
[5] = Table 1, read-out: AURB-inhibition IC50-value
[6] = Table 2a, compounds of the invention, read-out: AURB-inhibition IC50-value
[7] = Table 2a, compounds of the invention, read-out: GSK3-beta inhib. IC50-value
[8] = Table 1, read-out: FLT3-inhibition IC50-value
[9] = Table 2c, compounds of WO 2011/092128, read-out: IC50 (AURB-Inhibition)
[10] = Table 2c, compounds of WO 2011/092128, read-out: IC50 (GSK3beta-Inhibition)
[11] = Table 2c, compounds of WO 2011/092128, read-out: IC50 (FLT3-Inhibition)

| microsomal stability Cl ([1]; Table 2b) | IC50 [2] | IC50 [3, 5] | IC50 [3, 6] | IC50 (Human GSK3beta; [7]) | IC50 (FLT3; [8]) | micosomal stability Cl [1] | Structure (SMILES) | also measured |
| --- | --- | --- | --- | --- | --- | --- | --- | --- |
| 26 % Qh | – | – | – | – | – | – | CCCn1cc(-c2cc(O[C@H](C)[C@H]3CNC(=O)C3)c3cccnc3c2)cn1 [Example 114] | – |
| – | 0.0122 µM | > 50 µM | > 50 µM | > 10 µM | 7.93 µM | <23 % Qh | Cc1cc2c(O[C@H](C)[C@H]3CNC(=O)C3)cc(-c3cnn(C(C)(C)C)c3)cn2n1 [Example 34, (4R)-4-[(1R)-1-[6-(1-tert-Butylpyrazol-4-yl)-2-methyl-pyrazolo[1,5-a]pyridin-4-yl]oxyethyl]pyrrolidin-2-one] | – |
| – | 0.637 µM | > 50 µM | > 50 µM | > 10 µM | > 50 µM | <23 % Qh | Cc1nc2cc(-c3cnn(C(C)(C)C)c3)nc(O[C@H](C)[C@H]3CNC(=O)C3)n2n1 [Example 84, (4R)-4-[(1R)-1-[[7-(1-tert-Butylpyrazol-4-yl)-2-methyl-[1,2,4]triazolo[1,5-c]pyrimidin-5-yl]oxy]ethyl]pyrrolidin-2-one] | IC50 (FLT3; Table 2a, compounds of the invention, read-out: FLT3-inhibition IC50-value): > 50 µM |
| – | – | – | – | – | – | – | C[C@@H](Oc1nc(-c2ccc(C(F)(F)F)nc2)cc2ncccc12)[C@H]1CNC(=O)C1 [Example 3, reference compound] | IC50 [3, 9]: 1.04 µM; IC50 (Human GSK3beta; [10]): > 10 µM; IC50 (FLT3; [11]): 1.82 µM; microsomal stability Cl ([1]; Table 2c): 24 % Qh |
| <23 % Qh | – | – | – | – | – | – | Cc1c(-c2cc(O[C@H](C)[C@H]3CNC(=O)C3)c3cccnc3c2)cnn1C [Example 112] | – |
| – | – | – | – | – | – | – | COc1cc(Nc2ncc(F)c(Nc3ccc4c(n3)N(COP(=O)(O)O)C(=O)C(C)(C)O4)n2)cc(OC)c1OC [R788 (R406)] | platelet counts [4]: improved platelet counts |
| – | – | – | – | – | – | – | C[C@@H](Oc1nc(-c2ccc(N3CCOCC3)nc2)cc2ncccc12)[C@H]1CNC(=O)C1 [Example 45, reference compound] | IC50 [3, 9]: 0.086 µM; IC50 (Human GSK3beta; [10]): > 10 µM; IC50 (FLT3; [11]): 0.1 µM; microsomal stability Cl ([1]; Table 2c): 53 % Qh |
| – | 0.151 µM | > 50 µM | > 50 µM | > 10 µM | 35.8 µM | <23 % Qh | Cc1nc2cc(-c3cnn(C(C)(C)C)c3)cc(O[C@H](C)[C@H]3CNC(=O)C3)c2[nH]1 [Example 6, (4R)-4-[(1R)-1-[[6-(1-tert-Butylpyrazol-4-yl)-2-methyl-1H-benzimidazol-4-yl]oxy]ethyl]pyrrolidin-2-one] | – |
| <23 % Qh | – | – | – | – | – | – | CC(C)n1cc(-c2cc(O[C@H](C)[C@H]3CNC(=O)C3)c3cccnc3c2)cn1 [Example 115] | – |
